Measurements taken from patent US20250205253A1, “PHARMACEUTICAL COMPOSITION FOR PREVENTING OR TREATING BENIGN PROSTATIC HYPERPLASIA” (University-Industry Cooperation Group of Kyung Hee …, priority 2023, published 2025).

Assays:
[1] = tested on: testosterone-induced BPH rat model; experiment: Histological analysis (H&E) of prostate tissue of rats with BPH; format: in vivo; details: MitoQ 5, 25 mg/kg/day; Saw 100 mg/kg/day p.o.; FIGS. 4C, 4D
Excerpt: (§1) Six-week-old male Sprague-Dawley rats (n=40; 200 +20 g) were purchased from Daehan Biolink Co. (Daejeon, Korea). The animals were randomly allocated, four rats in each cage, and housed in accordance with the guidelines for the care and use of laboratory animals adopted and promulgated by Sangji University according to the requirements established by the National Institutes of Health. All experimental protocols were approved by the Institutional Animal Care and Use Committee (IACUC) of Sangji University before the initiation of the study (IACUC Animal Approval Protocol #2018-18). The rats were acclimatized to laboratory conditions for one week before initiating the experiment.
(§2) The rats in the control group were incised and sutured without removing the testicles following anesthesia using zoletil 50 (intraperitoneal injection, 10 mg/kg). […] Twenty-four hours after the final administration, all rats were euthanized following anesthesia with zoletil 50 (i.p., 20 mg/kg). Blood samples were drawn through cardiac puncture, and serum was obtained via centrifugation and stored at −80° C.
Prostate tissues from each group were fixed in 4% formalin and embedded in paraffin. The tissues were cut into 4-μm sections. […] The thickness of the epithelium in the prostate tissues was measured using the Leica Application Suite software (LAS ver. 3.3.0, Leica Microsystems, Inc., Buffalo Grove, IL, USA).

[2] = tested on: testosterone-induced BPH rat model; experiment: PCNA IHC and qRT-PCR in prostate of rats with BPH; format: in vivo
Procedure: (§3) Total RNA was isolated using Easy-Blue® reagent (iNtRON Biotechnology, Inc., Gyeonggi, Korea) and transcribed into complementary DNA (cDNA) according to the manufacturer's instructions. Oligonucleotide primers (Table 1) were purchased from Bioneer Corporation (Daejeon, Korea). qRT-PCR was performed according to the known method.
as §1
(§4) The rats in the control group were incised and sutured without removing the testicles following anesthesia using zoletil 50 (intraperitoneal injection, 10 mg/kg). […] Twenty-four hours after the final administration, all rats were euthanized following anesthesia with zoletil 50 (i.p., 20 mg/kg). […]

RWPE-1 cells = experiment: CCK-8 assay, viability of MitoQ-treated RWPE-1 cells; format: cell-based, human; details: without DHT, 24 h, FIG. 1B
Procedure: The normal human prostate epithelial cell line, RWPE-1, was obtained from the American Type Culture Collection (Manassas, VA, USA).
(§5) The RWPE-1 cells were cultured in a keratinocyte serum-free medium supplemented with 0.05 mg/mL bovine pituitary extract, 5 ng/mL human recombinant epidermal growth factor, and antibiotic-antimycotic solution (Gibco®, Big Cabin, OK, USA). The cells were cultured in a humidified environment at 37° C. and 5% CO2. The cells were cultured in a serum-free medium to block the effects of autocrine androgens.
The cell viability and proliferation were measured using the Cell Counting Kit-8 (CCK-8, Dojindo Molecular Technologies, Inc., D.C., USA). The RWPE-1 cells were plated to 96-well plates (1×10^5 cells/well) and incubated for 24 h. […] After the treatment, the CCK-8 solution was added to each well and incubated for four hours. The number of viable cells was monitored by measuring absorbance at 450 nm using an Epoch microplate reader (Biotek, Winooski, VT, USA).

[3] = tested on: testosterone-induced BPH rat model; experiment: Immunofluorescence (8-OHdG, NLRP3) of rat prostate tissue; format: in vivo
Procedure: After deparaffinization and rehydration, rat prostate tissue slides were incubated with anti-mouse 8-OHdG antibodies or anti-rabbit NLRP3 antibodies and visualized with FITC-conjugated anti-mouse and TRITC-conjugated anti-rabbit secondary antibodies, respectively.
The slides were mounted and detected using a Nikon X-Cite-Series 120 Q microscope (Nikon, Japan). The exposure parameters were the same for each sample.
as §1, §4

[4] = tested on: DHT-stimulated RWPE-1 cells; experiment: Immunofluorescence (8OHdG, NLRP3, AR) in DHT-stimulated RWPE-1 cells; format: cell-based, human; details: DHT-stimulated RWPE-1, MitoQ 25, 50, 100 μM
Procedure: as §5
Thereafter, the cells were washed and incubated with fluorescein isothiocyanate (FITC)-conjugated anti-mouse or tetramethylrhodamine (TRITC)-conjugated anti-rabbit secondary antibodies. Nuclei were stained with 4′,6-diamidino-2-phenylindole (Life Technologies). Images were captured using an optical microscope (ECLIPSE Ni-U, Nikon, Tokyo, Japan).

[5] = tested on: DHT-stimulated RWPE-1 cells; experiment: ATPase assay in DHT-stimulated RWPE-1 cells; format: cell-based, human; details: DHT-stimulated RWPE-1, MitoQ 25, 50, 100 μM, 24 h; FIG. 2E
[6] = tested on: testosterone-induced BPH rat model; experiment: qRT-PCR mRNA level in prostate of rats with BPH; format: in vivo
Procedure: as §3, §1, §2

[7] = tested on: testosterone-induced BPH rat model; experiment: Testosterone-induced BPH rat model, prostate size and weight; format: in vivo
Excerpt: as §1, §2

## mitoquinone
[1]
  thickened epithelium of prostate tissue: significantly reduced
[2]; MitoQ 25 mg/kg/day vs Saw 100 mg/kg/day
  cellular proliferation inhibiting effect compared to Saw: superior
[2]; MitoQ 5, 25 mg/kg/day, Saw 100 mg/kg/day p.o., FIGS. 4C, 4E, 4F
  overexpression of PCNA protein and mRNA: clearly suppressed
RWPE-1 cells
  concentration of MitoQ suppressing RWPE-1 cell proliferation (viability): ≥ 25 μM
[3]; FIGS. 6A, 6B
  BPH-upregulated expression of NLRP3: reversed
[3]; vs BPH groups, FIGS. 5A, 5B
  intensity of 8-OHdG-positive staining: significantly lower
[4]; FIG. 1D
  overexpression of 8OHdG (oxidative stress indicator): notably suppressed
[4]; FIG. 2A
  NLRP3 protein expression: significantly suppressed
[4]; FIG. 3A
  AR overexpression (protein): clearly suppressed
[5]
  ATPase-specific activity: significantly suppressed
[6]; FIG. 5D
  mRNA level of HO-1, SOD1, and PGC1α: upregulated
[6]; FIG. 6C
  increased mRNA level of PYCARD and IL-1β: repressed
[6]; FIGS. 7B, 7C
  mRNA level of 5α-reductase 2, AR, and SRC-1: downregulated
[7]; MitoQ 5, 25 mg/kg/day, Saw 100 mg/kg/day p.o., vs BPH, FIG. 4B
  prostate weight (PW/BW ratio): significant reduction
[7]; MitoQ 5 and 25 mg/kg p.o., four weeks, FIG. 4A
  prostate size: reduced
